Measured values reported in US20190367516A1 (Bayer Pharma Aktiengesellschaft, priority 2015, published 2019).
pEC50: −log10 of the molar value. Where two headings read alike, the source gives them in different places.

Target: T1, human M2 receptor (Homo sapiens, UniProt P08172)
T1 sequence (P08172 1-466): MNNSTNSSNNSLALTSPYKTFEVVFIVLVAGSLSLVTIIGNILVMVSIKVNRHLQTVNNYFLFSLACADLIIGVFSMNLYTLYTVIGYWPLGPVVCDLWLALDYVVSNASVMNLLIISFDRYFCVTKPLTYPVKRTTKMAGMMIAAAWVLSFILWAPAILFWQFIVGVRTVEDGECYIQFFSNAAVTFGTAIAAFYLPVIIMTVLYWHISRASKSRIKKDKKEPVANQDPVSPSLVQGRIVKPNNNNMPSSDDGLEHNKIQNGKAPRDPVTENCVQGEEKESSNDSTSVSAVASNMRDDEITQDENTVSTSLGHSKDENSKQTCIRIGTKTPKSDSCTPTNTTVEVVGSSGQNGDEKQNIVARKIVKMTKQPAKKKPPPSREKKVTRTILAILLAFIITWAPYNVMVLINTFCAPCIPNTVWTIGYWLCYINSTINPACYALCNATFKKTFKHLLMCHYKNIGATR
Details: for Efficiency: boosting of the acetylcholine effect at EC20 acetylcholine concentration

[1] = Receptor activity EC50, M2-GIRK1/4 activation test, acetylcholine at EC20, allosteric potency, in some cases mean values from two or more determinations
[2] = Receptor activity EC50, allosteric potency at EC20 acetylcholine, M2-GIRK1/4 reporter cells, in some cases mean of two or more determinations
[3] = read-out: Efficiency, boosting of the acetylcholine effect at EC20 acetylcholine concentration, M2-GIRK1/4 reporter cells

SMILES | pEC50 [1] | pEC50 [2] | other results
CC[C@H](NC(=O)c1cn(-c2c(Cl)cc(F)cc2Cl)c2nc(N3C[C@@H](O)CC3=O)ccc2c1=O)C(F)(F)F [Example 389, 1-(2,6-Dichloro-4-fluorophenyl)-7-[(4S)-4-hydroxy-2-oxopyrrolidin-1-yl]-4-oxo-N-[(2S)-1,1,1-trifluorobutan-2-yl]-1,4-dihydro-1,8-naphthyridine-3-carboxamide] | 7.42 | – | Emax (read-out: Efficiency): 85.5%
O=C(Nc1c(Cl)cccc1Cl)c1cn(-c2c(F)cc(F)cc2F)c2nc(N3C[C@@H](O)CC3=O)ccc2c1=O [Example 592, N-(2,6-Dichlorophenyl)-7-[(4S)-4-hydroxy-2-oxopyrrolidin-1-yl]-4-oxo-1-(2,4,6-trifluorophenyl)-1,4-dihydro-1,8-naphthyridine-3-carboxamide] | – | 7.80 | Emax [3]: 99.5%
CCCC(NC(=O)c1cn(-c2ccc(F)cc2F)c2nc(N3CCC(F)(F)C3)ccc2c1=O)C(F)(F)F (racemic) [Example 76, rac-1-(2,4-Difluorophenyl)-7-(3,3-difluoropyrrolidin-1-yl)-4-oxo-N-[1,1,1-trifluoropentan-2-yl]-1,4-dihydro-1,8-naphthyridine-3-carboxamide] | 7.16 | – | –
CC(C)C[C@H](NC(=O)c1cn(-c2ccc(F)cc2F)c2nc(N(C)C)ccc2c1=O)C(F)(F)F [Example 137, 1-(2,4-Difluorophenyl)-7-(dimethylamino)-4-oxo-N-[(2S)-1,1,1-trifluoro-4-methylpentan-2-yl]-1,4-dihydro-1,8-naphthyridine-3-carboxamide] | 7.80 | – | –
C[C@H](NC(=O)c1cn(-c2c(F)cc(F)cc2Cl)c2nc(N3CCNC3=O)ccc2c1=O)C(F)(F)F [Example 419, 1-(2-Chloro-4,6-difluorophenyl)-4-oxo-7-(2-oxoimidazolidin-1-yl)-N-[(2S)-1-1,1,1-trifluoropropan-2-yl]-1,4-dihydro-1,8-naphthyridine-3-carboxamide] | – | 7.34 | Emax [3]: 91.5%
CC(C)(CC(F)(F)F)NC(=O)c1cn(-c2c(F)cc(F)cc2F)c2nc(N3C[C@@H](O)[C@@H](O)C3)ccc2c1=O [Example 612, 7-[(3R,4S)-3,4-Dihydroxypyrrolidin-1-yl]-4-oxo-N-(4,4,4-trifluoro-2-methylbutan-2-yl)-1-(2,4,6-trifluorophenyl)-1,4-dihydro-1,8-naphthyridine-3-carboxamide] | – | 7.54 | Emax [3]: 100%
O=C(NC12CC3CC(CC(F)(C3)C1)C2)c1cn(-c2ccc(F)cc2F)c2nc(N3CC[C@H](F)C3)ccc2c1=O [Example 62, 1-(2,4-Difluorophenyl)-7-[(3S,)-3-fluoropyrrolidin-1-yl]-N-(3-fluorotricyclo[3.3.1.1^3,7]dec-1-yl)-4-oxo-1,4-dihydro-1,8-naphthyridine-3-carboxamide] | 7.77 | – | –
CC[C@@H](NC(=O)c1cn(-c2ccc(F)cc2F)c2nc(N3CC(C)CC3=O)ccc2c1=O)C(F)(F)F (single isomer, unassigned) [Example 302] | 7.77 | – | –
O=C(N[C@@H](C1CC1)C(F)(F)F)c1cn(-c2c(F)cc(F)cc2F)c2nc(N3CCOC(CO)C3)ccc2c1=O (single isomer, unassigned) [Example 465, N-[(1 S)-1-Cyclopropyl-2,2,2-trifluoroethyl]-7-[2-(hydroxymethyl)morpholin-4-yl]-4-oxo-1-(2,4,6-trifluorophenyl)-1,4-dihydro-1,8-naphthyridine-3-carboxamide] | – | 7.12 | Efficiency (M2-GIRK1/4 reporter cells): 89.0%
CC(C)C[C@@H](NC(=O)c1cn(-c2c(F)cc(F)cc2F)c2nc(N3C[C@@H](O)[C@H](O)C3)ccc2c1=O)C(F)(F)F [Example 544, 7-[(3R,4R)-3,4-Dihydroxypyrrolidin-1-yl]-4-oxo-N-[(2R)-1,1,1-trifluoro-4-methylpentan-2-yl]-1-(2,4,6-trifluorophenyl)-1,4-dihydro-1,8-naphthyridine-3-carboxamide] | – | 8.10 | Emax [3]: 98%
CC[C@@H](NC(=O)c1cn(-c2ccc(F)cc2F)c2nc(N3C(=O)C(C)(C)C(O)C3C)ccc2c1=O)C(F)(F)F (stereo partly drawn) [Example 657, 1-(2,4-Difluorophenyl)-7-[4-hydroxy-3,3,5-trimethyl-2-oxopyrrolidin-1-yl]-4-oxo-N-[(2R)-1,1,1-trifluorobutan-2-yl]-1,4-dihydro-1,8-naphthyridine-3-carboxamide] | – | 7.00 | Emax [3]: 85.3%
CCC(COC(F)(F)F)NC(=O)c1cn(-c2c(F)cc(F)cc2F)c2nc(N3CCNC3=O)ccc2c1=O (racemic) [Example 610, 4-Oxo-7-(2-oxoimidazolidin-1-yl)-N-[1-(trifluoromethoxy)butan-2-yl]-1-(2,4,6-trifluorophenyl)-1,4-dihydro-1,8-naphthyridine-3-carboxamide] | – | 7.96 | Efficiency (M2-GIRK1/4 reporter cells): 100.0%
O=C(NC12CC(F)(C1)C2)c1cn(-c2c(F)cc(F)cc2Cl)c2nc(N3C[C@@H](O)[C@H](O)C3)ccc2c1=O [Example 401, 1-(2-Chloro-4,6-difluorophenyl)-7-[(3R,4R)-3,4-dihydroxypyrrolidin-1-yl]-N-(3-fluorobicyclo[1.1.1]pent-1-yl)-4-oxo-1,4-dihydro-1,8-naphthyridine-3-carboxamide] | – | 7.39 | Emax [3]: 95.5%
CC[C@@H](NC(=O)c1cn(-c2ccc(F)cc2F)c2nc(N3CC(F)C3)ccc2c1=O)C(F)(F)F [Example 32, 1-(2,4-Difluorophenyl)-7-(3-fluoroazetidin-1-yl)-4-oxo-N-[(2R)-1,1,1-trifluorobutan-2-yl]-1,4-dihydro-1,8-naphthyridine-3-carboxamide] | 6.76 | – | –
O=C(NC12CC3CC(CC(C3)C1)C2)c1cn(-c2ccc(F)cc2F)c2nc(N3CC[C@@H](F)C3)ccc2c1=O [Example 72, 1-(2,4-Difluorophenyl)-7-[(3R)-3-fluoropyrrolidin-1-yl]-4-oxo-N-(tricyclo[3.3.1.1^3,7]dec-1-yl)-1,4-dihydro-1,8-naphthyridine-3-carboxamide] | 7.28 | – | –
CC[C@@H](NC(=O)c1cn(-c2ccc(F)cc2F)c2nc(N3CCCN(CC)C3=O)ccc2c1=O)C(F)(F)F [Example 344, 1-(2,4-Difluorophenyl)-7-(3-ethyl-2-oxotetrahydropyrimidin-1(2H)-yl)-4-oxo-N-[(2R)-1,1-trifluorobutan-2-yl]-1,4-dihydro-1,8-naphthyridine-3-carboxamide] | 7.27 | – | –
O=C(NC12CC3CC(CC(C3)C1)C2)c1cn(-c2ccc(F)cc2F)c2nc(N3CCOC[C@H]3CO)ccc2c1=O [Example 117, 1-(2,4-Difluorophenyl)-7-[(3R)-3-(hydroxymethyl)morpholin-4-yl]-4-oxo-N-(tricyclo[3.3.1.1^3,7]dec-1-yl)-1,4-dihydro-1,8-naphthyridine-3-carboxamide] | 7.05 | – | –
CC(C)(C)[C@H](NC(=O)c1cn(-c2c(F)cc(F)cc2F)c2nc(N3CCNC3=O)ccc2c1=O)C(F)(F)F [Example 359, 4-Oxo-7-(2-oxoimidazolidin-1-yl)-N-[(2S)-1,1,1-trifluoro-3,3-dimethylbutan-2-yl]-1-(2,4,6-trifluorophenyl)-1,4-dihydro-1,8-naphthyridine-3-carboxamide] | 7.89 | – | –
CC[C@H](NC(=O)c1cn(-c2ccc(F)cc2F)c2nc(N(C)CCF)ccc2c1=O)C(F)(F)F [Example 103, 1-(2,4-Difluorophenyl)-7-[(2-fluoroethyl)(methyl)amino]-4-oxo-N-[(2S)-1,1,1-trifluorobutan-2-yl]-1,4-dihydro-1,8-naphthyridine-3-carboxamide] | 7.30 | – | –
O=C(NC12CC(F)(C1)C2)c1cn(-c2c(F)cc(F)cc2F)c2nc(N3C[C@@H](O)[C@H](O)C3)ccc2c1=O [Example 368, 7-[(3R,4R)-3,4-Dihydroxypyrrolidin-1-yl]-N-(3-fluorobicyclo[1.1.1]pent-1-yl)-4-oxo-1-(2,4,6-trifluorophenyl)-1,4-dihydro-1,8-naphthyridine-3-carboxamide] | 7.04 | – | –
Cc1cccc(C(NC(=O)c2cn(-c3ccc(F)cc3F)c3nc(N(C)C)ccc3c2=O)C(F)(F)F)c1 (racemic) [Example 138, rac-1-(2,4-Difluorophenyl)-7-(dimethylamino)-4-oxo-N-[2,2,2-trifluoro-1-(3-methylphenyl)ethyl]-1,4-dihydro-1,8-naphthyridine-3-carboxamide] | 7.17 | – | –
CN(C)c1ccc2c(=O)c(C(=O)NC3(C(F)(F)F)CCCC3)cn(-c3ccc(F)cc3F)c2n1 [Example 151, 1-(2,4-Difluorophenyl)-7-(dimethylamino)-4-oxo-N-[1-(trifluoromethyl)cyclopentyl]-1,4-dihydro-1,8-naphthyridine-3-carboxamide] | 7.64 | – | –
CC[C@H](NC(=O)c1cn(-c2c(F)cc(F)cc2F)c2nc(NC(C)(C)C)ccc2c1=O)C(F)(F)F [Example 499] | – | 7.20 | Emax [3]: 96%
O=C(NC12CC3CC(CC(C3)C1)C2)c1cn(-c2ccc(F)cc2F)c2nc(N3CCC(O)CC3=O)ccc2c1=O (centres unmarked) [Example 173] | 7.06 | – | –
O=C(NCC(F)(F)F)c1cn(-c2ccc(F)cc2F)c2nc(N3CC[C@H](F)C3)ccc2c1=O [Example 67, 1-(2,4-Difluorophenyl)-7-[(3S)-3-fluoropyrrolidin-1-yl]-4-oxo-N-(2,2,2-trifluoroethyl)-1,4-dihydro-1,8-naphthyridine-3-carboxamide] | 6.86 | – | –
